According to the METLIN SMRT retention time set (Domingo-Almenara et al. 2019):

Assay: gradient 5% acetonitrile 3 min, to 50% in 2 min, to 85% in 15 min, held 3 min, 100 µL/min
Conditions: column: Zorbax Extend-C18 2.1 x 50 mm; eluents: water / acetonitrile, 0.1% formic acid
How it was run: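 Values are retention times taken from adduct peaks that software picked and an analyst inspected. The pure standards were run as mixtures of ~100 molecules on HPLC linked to a quadrupole time-of-flight mass spectrometer, in positive and negative ionization mode. A Zorbax Extend-C18 column (2.1 × 50 mm, 1.8 μm) was used at 100 μL/min with water and acetonitrile, each including 0.1% formic acid.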

| Structure (SMILES) | RP-LC retention time [s] |
| --- | --- |
| CCOC(=O)C1CCC(CNC(=O)N2CCC(c3nc4ccncc4n3C)C2)CC1 (configuration not stated) | 548 |
| Cc1cccc(NC(=O)CN2CCC(COCc3ccccc3)CC2)c1C | 610 |
| Cc1cc(N2CCN(C(=O)c3nccc4ccccc34)CC2)nc2nnc(C)n12 | 592 |
| CCC(C)NC(=O)c1cc(-c2cccs2)nc2onc(C)c12 (configuration not stated) | 929 |
| Cc1ccnc(N2CCCC(C(=O)NCCc3ccc(S(N)(=O)=O)cc3)C2)n1 (configuration not stated) | 604 |
| Cc1ccc(-c2cc(C(=O)N3CCC(NC(=O)C4CCCCC4)CC3)[nH]n2)c(C)c1 | 811 |
| COc1cccc(NC(=O)C2CCCN(C(=O)C3Sc4ccccc4NC3=O)C2)c1 (configuration not stated) | 786 |
| Cc1ccc(C)c(CS(=O)(=O)N2CCC(CN3CCCCCC3)CC2)c1 | 700 |
| O=C(NCC(c1ccsc1)N1CCCCCC1)C(=O)Nc1ccc2c(c1)OCCO2 (configuration not stated) | 570 |
| O=C(NC1CCCCC1)c1ccn[nH]1 | 642 |
| CC1Cc2ccccc2N1C(=O)c1coc(NC(=O)c2ccco2)n1 (configuration not stated) | 724 |
| Cc1c(-c2noc(C(=O)NCCCN3CCCCCC3)n2)oc2ccccc12 | 692 |
| Cc1sc2ccn(CC(C)C)c(=O)c2c1C(=O)NCCN1CCN(C)CC1 | 574 |
| COc1ccc(-c2c(C)nn3c(N4CCN(c5ccccn5)CC4)cc(C)nc23)cc1OC | 600 |
| COC(=O)c1cc(S(=O)(=O)N2CCN(c3ccccn3)CC2)c(C)n1C | 630 |
| COc1ccc(N2C(=O)C3N=NN(c4cccc(OC)c4)C3C2=O)cc1 (configuration not stated) | 905 |
| Cc1ccc(-c2ccc(-n3nc(C)c(S(=O)(=O)NC4CC4)c3C)nn2)cc1 | 944 |
| Cc1ccc(S(=O)(=O)N2CCC3(CC2)NCCN=C3NCc2ccccc2F)c(C)c1 | 747 |
| Cc1cc(C)n(C(CC(=O)O)C(=O)O)n1 (configuration not stated) | 525 |
| CO[C@H]1CN(C2CCN(S(=O)(=O)Cc3ccccc3)CC2)[C@H]1c1ccncc1 | 612 |
| COC(=O)c1c(C)[nH]c(C(=O)N2CCC(CC(=O)NCc3ccccc3Cl)CC2)c1C | 775 |
| CCOc1ccnc2c1c(=O)n(CC(=O)Nc1cccc(C(F)(F)F)c1)c(=O)n2C | 782 |
| CC(=O)Nc1nnc(SCC(=O)Nc2ccc(OC(F)(F)F)cc2)s1 | 733 |

| Structure (SMILES) | RP-LC retention time [s] |
| --- | --- |
| COc1ccc(OC)c(NC(=O)CSc2cc(N3CCN(c4ccccc4F)CC3)ncn2)c1 | 1180 |
| CCCNC(=O)CN1CCN(Cc2ccccc2)C1=O | 675 |
| CC(C)Cc1cc(-c2nn3c(CSc4ccccc4)nnc3s2)n[nH]1 | 948 |
| O=C(Nc1cccn2nc(C3CCC3)nc12)c1ccccn1 | 961 |
| CCOC(=O)C(=O)Nc1cc(Cl)ccc1C#N | 763 |
| CC1CCN(c2cc3c(cc2NC(=O)c2ccco2)n(C)c(=O)c(=O)n3C)CC1 | 632 |
| COCC(=O)N1CCCN(C2=NS(=O)(=O)C(c3ccc(Cl)cc3)=C2C)CC1 | 723 |
| O=C(c1cc2c(=O)n(Cc3ccccc3)ccc2s1)N1CCOCC1 | 716 |
| CC1CN(CC(=O)N2CCN(c3ccccn3)CC2)c2ccccc2S1 (configuration not stated) | 683 |
| Cn1cc(C(=O)Nc2ccc(C(F)(F)F)cc2)c2cccnc21 | 909 |
| CCc1nnc(-c2cc(C)n(CC(=O)Nc3cc(OC)cc(OC)c3)c2C)o1 | 807 |
| CC(=O)Nc1nnc(SCc2nnc(-c3ccccc3C)o2)s1 | 740 |
| CC(C)n1cnc(S(=O)(=O)N2CCC(C(=O)N3CCN(c4ccc(Cl)cc4)CC3)CC2)c1 | 865 |
| COc1cc(OC)c(NC(=O)NC2CCN(c3nc4ccccc4n(C)c3=O)CC2)cc1Cl | 945 |
| COC(=O)C1=CN(c2ccc(N(C)C)cc2)c2cc(F)ccc2S1(=O)=O | 926 |
| O=C(C1CCCN(c2nc3cccnc3s2)C1)N1CCN(c2cccc(Cl)c2)CC1 (configuration not stated) | 1010 |
| CCOc1ccc(N(CC)C(=O)c2nc(C)n(C3CCN(S(C)(=O)=O)CC3)c2C)cc1 | 640 |
| Cn1ncc2c3ccccc3n(CC(=O)N3CCN(c4ncccn4)CC3)c2c1=O | 700 |
| O=C(Nc1ccc2ncnc(N3CCCCC3)c2c1)c1cccs1 | 670 |
| Cn1c(CCNC(=O)c2ccc(C(F)(F)F)cc2)nc2cccnc21 | 686 |
| O=C(c1ccc(Br)cc1)N1CCN(c2cc(-c3ccc(Cl)cc3)[nH]n2)CC1 | 945 |
| COc1ccc(OC)c(CNC(=O)CCc2c(C)nn(-c3cc(N(C)C)ncn3)c2C)c1 | 726 |
| CCc1nc(-c2cc(S(=O)(=O)Nc3ccc(F)cc3F)c(C)s2)cs1 | 994 |

Results, then the compound that gave them:

| RP-LC retention time [s] | Structure (SMILES) |
| --- | --- |
| 1330 | Cc1cc(NC(=O)c2c(F)cccc2Cl)n(-c2nc(-c3ccccc3)cs2)n1 |
| 1140 | CCc1sc(NC(=O)c2cc3c([nH]c2=O)CCCC3=O)nc1-c1ccc(Cc2ccccc2)cc1 |
| 829 | Cc1ccccc1Oc1nccn2c(=O)n(CC(=O)Nc3ccc(F)cc3F)nc12 |
| 932 | COc1cccc(-n2c(N3CCCC(C(=O)Nc4ccc(F)cc4)C3)nc3ccsc3c2=O)c1 (configuration not stated) |
| 1070 | CCn1cc(-c2ccccc2)cc1C(=O)NCC(C)C |
| 1010 | Cc1ccccc1CNC(=O)C1CCCN(c2nc3ccsc3c(=O)n2Cc2ccc(F)cc2)C1 (configuration not stated) |
| 951 | O=C(Oc1ccccc1)N1CCC(CNS(=O)(=O)c2ccc(F)c(Cl)c2)CC1 |
| 860 | O=C(Cc1cccc2ccccc12)NCCOc1ccc(F)cc1 |
| 1400 | O=S(=O)(NCCC1=CCCCC1)c1ccccc1-c1nc(-c2cccc(F)c2)no1 |
| 989 | CCc1ccccc1NC(=O)CSc1nnc2c3cc(-c4ccc(C)cc4)nn3ccn12 |
| 1000 | Cc1cc(-c2ccc3c(c2)CCN3C(=O)Cc2ccc(F)cc2)on1 |
| 808 | CCc1nn2c(CNC(=O)c3ccoc3)c(-c3ccccc3)nc2s1 |
| 726 | Cc1nc(-c2cnccn2)nc2c1CCC(=O)N2Cc1ccccc1F |
| 670 | CCc1nn2c(N3CCN(c4ccccn4)CC3)cc(C)nc2c1-c1ccccc1 |
| 620 | O=C(c1ccccn1)N1CCCn2cc(-c3ccccc3)nc21 |
| 587 | Cc1ccc(-c2nc(NCc3cccnc3)ncc2C(=O)O)cc1 |
| 683 | O=C(NCCCn1nc(-c2ccc(F)cc2)ccc1=O)c1cccc(-n2cnnn2)c1 |
| 727 | O=C(NCc1cccs1)c1cc(=O)c(OCc2ccccc2)co1 |
| 813 | CCCC(=O)OCCCNc1nc(-c2ccc(Cl)cc2)nc2ccccc12 |
| 782 | Fc1ccc(-c2nc3ncccn3c2NCc2ccc(Cl)cc2)cc1 |
| 705 | Cc1cccc(C)c1Nc1c(-c2ccccc2O)nc2ncccn12 |
